# Test results: patent US9457039B2, “2′-disubstituted nucleoside derivatives and methods of use thereof for the treatment of viral diseases” (Merck Sharp & Dohme Corp., priority 2012, dated 2016)
# Tested on: HCV replicon (1b) cells
# Assay: Cell-based HCV replicon assay (replicon RNA level by real time PCR, Taqman)
# Conditions: HCV replicon cells, harvested on day 3; EC50 = concentration giving ΔCT=1 over baseline; read-out: 1b EC50
# Experimental: To measure cell-based anti-HCV activity of selected compounds of the present invention, replicon cells were seeded at 5000 cells/well in 96-well collagen I-coated Nunc plates in the presence of the test compound. Various concentrations of test compound, typically in 10 serial 2-fold dilutions, were added to the assay mixture, with the starting concentration ranging from 250 μM to 1 μM. The final concentration of dimethylsulfoxide was 0.5% fetal bovine serum was 5%, in the assay media. Cells were harvested on day 3 by the addition of 1× cell lysis buffer (Ambion cat #8721).
# The replicon RNA level was measured using real time PCR (Taqman assay). The amplicon was located in 5B. The PCR primers were: 5B.2F, […] (SEQ ID. NO. 1); 5B.2R, […] (SEQ ID. NO. 2); the probe sequence was FAM-labeled […] (SEQ ID. NO. 3). GAPDH RNA was used as endogenous control and was amplified in the same reaction as NS5B (multiplex PCR) using primers and VIC-labeled probe recommended by the manufacturer (PE Applied Biosystem). The real-time RT-PCR reactions were run on ABI PRISM 7900HT Sequence Detection System using the following program: 48° C. for 30 minutes, 95° C. for 10 minutes, 40 cycles of 95° C. for 15 sec, 60° C. for 1 minute. The ΔCT values (CT5B-CTGAPDH) were plotted against the concentration of test compound and fitted to the sigmoid dose-response model using XLfit4 (MDL). […] Alternatively, to quantitate the absolute amount of replicon RNA, a standard curve was established by including serially diluted T7 transcripts of replicon RNA in the Taqman assay. All Taqman reagents were from […] Applied Biosystems. Such an assay procedure was described in detail in e.g. Malcolm et al., Antimicrobial Agents and Chemotherapy 50: 1013-1020 (2006).
row,Structure (SMILES),EC50 [µM]
1,CC(C)OP1(=O)OC[C@H]2O[C@@H](c3cnc4c(N)ncnn34)[C@](C)(N)[C@@H]2O1 (stereo partly shown) [Compound 19],> 100
2,CC(C)OP1(=O)OC[C@H]2O[C@@H](c3cnn4c(N)ncnc34)[C@](C)(N)[C@@H]2O1 (stereo partly shown) [Compound 21],> 100

# Same assay, conditions: Hepatitis C virus, 72 h; read-out: 1b EC50
row,Structure (SMILES),EC50 [µM]
1,C[C@@]1(N=[N+]=[N-])[C@H](O)[C@@H](CO)O[C@H]1c1cnc2c(N)ncnn12 [Compound 3],> 100
2,C[C@@]1(N=[N+]=[N-])[C@H](O)[C@@H](CO)O[C@H]1c1cnn2c(N)ncnc12 [Compound 4],> 100
3,C[C@@]1(N)[C@H](O)[C@@H](CO)O[C@H]1c1cnc2c(N)ncnn12 [Compound 6],> 100
4,C[C@@]1(N)[C@H](O)[C@@H](CO)O[C@H]1c1cnn2c(N)ncnc12 [Compound 7],> 100
5,CC(C)OP1(=O)OC[C@H]2O[C@@H](c3cnc4c(N)ncnn34)[C@](C)(N)[C@@H]2O1 (stereo partly shown) [Compound 18],> 100
6,CC(C)OP1(=O)OC[C@H]2O[C@@H](c3cnn4c(N)ncnc34)[C@](C)(N)[C@@H]2O1 (stereo partly shown) [Compound 20],> 100

# Same assay, conditions: read-out: 1b EC50; HCV replicon cells, harvested on day 3; EC50 = concentration giving ΔCT=1 over baseline
row,Structure (SMILES),EC50 [µM]
1,CC(C)OC(=O)[C@H](C)NP(=O)(OC[C@H]1O[C@@H](c2cnn3c(N)ncnc23)[C@](C)(N)[C@@H]1O)Oc1ccccc1 (stereo partly shown) [Compound 14],> 100
2,CC(C)OC(=O)[C@H](C)NP(=O)(OC[C@H]1O[C@@H](c2cnn3c(N)ncnc23)[C@](C)(N)[C@@H]1O)Oc1ccccc1 (stereo partly shown) [Compound 15],28
